Consider 1 compound from paper PMC8637530, “Modulatory Actions of the Glycine Receptor β Subunit on the Positive Allosteric Modulation of Ethanol in α2 Containing Receptors” (Frontiers in Molecular Neuroscience, 2021).

What all share (assay): whole-cell patch clamp, HEK293
Holding throughout (format): cell-based
What all share (conditions): -60 mV, 20-24 °C, pH 7.4; agonist

The test system of one experiment is T1, α2 GlyR (homomeric).
T1 construct: gene GLRA2; recombinant homomeric receptor expressed in HEK293 cells
From the text: whole-cell patch clamp, HEK293 on α2 GlyR (homomeric)

The test system of the next experiment is T2, α1 GlyR (homomeric).
T2 construct: gene GLRA1; recombinant homomeric receptor expressed in HEK293 cells; EGFP co-transfected
From the text:
whole-cell patch clamp, HEK293 on α1 GlyR (homomeric)

Another experiment has as its system T3, α1β GlyR (heteromeric).
T3 construct: gene GLRA1; recombinant heteropentamer in HEK293 cells, excess beta cDNA (1 μg alpha/EGFP plus 4 μg beta)
From the text:
whole-cell patch clamp, HEK293 on α1β GlyR (heteromeric)

In general, EC50 refers to the concentration needed to bring the measured effect to its halfway point. Regarding `NCC(=O)O` [Glycine], the EC50 with α2 GlyR (homomeric) worked out at 86 ± 2 µM; in the experiment on α1 GlyR (homomeric), […]; with α1β GlyR (heteromeric) it was […].
